Test results from patent publication US10703733B2, “MCL-1 inhibitors” (Gilead Sciences, Inc., priority 2018, dated 2020).
pEC50, pIC50: −log10 of the molar value. Like-named read-outs stand apart in the source and are kept apart here.

Columns and labels:
SKBR3 cells = assay: SKBR3 Cell Viability Assay (CellTiter Glo); format: cell-based; conditions: CellTiter Glo luminescence, read-out: MCL-1 CV SKBR3 EC50
In short: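 SKBR3 cells (6,000/well) in McCoy 5A + 10% FBS exposed to serially diluted compound for 72 h at 37° C., 5% CO2. Viability by CellTiter Glo luminescence; % inhibition normalized to DMSO (negative) and 10 μM puromycin (positive).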

[1] = molecular target: MCL-1/Bim interaction (recombinant human MCL-1 protein, residues 171-327; biotinylated human Bim peptide, residues 51-76) (Homo sapiens (Human), UniProt Q07820); assay: MCL-1/Bim Binding AlphaLISA Assay; conditions: 0.0625 nM 6xHis-Mcl-1 (171-327), 0.0625 nM biotinylated-Bim peptide
In short: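 AlphaLISA with 0.0625 nM His-tagged MCL-1 and 0.0625 nM biotin-Bim peptide in 20 mM Hepes pH 7.5, 150 mM NaCl, 0.002% Brij 35, 1 mM DTT, 0.01% BSA. Compound preincubated 1 h with MCL-1, Bim added for 2 h, then acceptor and donor beads 1 h each.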

Sequence of MCL-1/Bim interaction (recombinant human MCL-1 protein, residues 171-327; biotinylated human Bim peptide, residues 51-76) (Q07820 171-327): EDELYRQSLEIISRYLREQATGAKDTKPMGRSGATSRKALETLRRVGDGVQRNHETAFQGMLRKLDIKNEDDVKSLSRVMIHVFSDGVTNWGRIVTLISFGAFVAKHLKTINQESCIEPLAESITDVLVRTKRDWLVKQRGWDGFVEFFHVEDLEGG

SMILES | pEC50 (SKBR3 cells; 72 hours) | pIC50 [1] | pEC50 (SKBR3 cells; Homo sapiens, SK-BR-3, 72 h) | pEC50 (SKBR3 cells; Homo sapiens, SK-BR-3, 72 hours)
CO[C@H]1/C=C/C[C@H](C)C[S@@](=O)(NC(=O)N[C@@H]2C[C@H]2CC(F)F)=NC(=O)c2ccc3c(c2)N(C[C@@H]2CC[C@H]21)C[C@@]1(CCCc2cc(Cl)ccc21)CO3 (single isomer, unassigned) [Example 281] | 6.74 | 9.81 | – | –
CO[C@H]1/C=C/CCC[S@@](=O)(NC(=O)C2CC2)=NC(=O)c2ccc3c(c2)N(C[C@@H]2CC[C@H]21)C[C@@]1(CCCc2cc(Cl)ccc21)CO3 [Example 27] | – | 8.80 | 5.68 | –
CO[C@@H]1CCN(C(=O)N[S@@]2(=O)=NC(=O)c3ccc4c(c3)N(C[C@@H]3CC[C@H]3[C@@H](OC)/C=C/C[C@H](C)C2)C[C@@]2(CCCc3cc(Cl)ccc32)CO4)C1 [Example 350] | – | 10.26 | 7.12 | –
CCC(=O)N[S@@]1(=O)=NC(=O)c2ccc3c(c2)N(C[C@@H]2CC[C@H]2[C@@H](OCCN2CCOCC2)/C=C/CCC1)C[C@@]1(CCCc2cc(Cl)ccc21)CO3 (single isomer, unassigned) [Example 67] | – | 8.92 | 5.98 | –
CO[C@H]1/C=C/CCC[S@@](=O)(NC(=O)CCn2ccc(C)n2)=NC(=O)c2ccc3c(c2)N(C[C@@H]2CC[C@H]21)C[C@@]1(CCCc2cc(Cl)ccc21)CO3 [Example 59] | – | 10.00 | 6.06 | –
CO[C@H]1/C=C/C[C@H](C)C[S@@](=O)(NC(=O)c2cc3n(c2)C(=O)CCC3)=NC(=O)c2ccc3c(c2)N(C[C@@H]2CC[C@H]21)C[C@@]1(CCCc2cc(Cl)ccc21)CO3 [Example 145] | – | 10.43 | 6.83 | –
COc1nn(C)cc1C(=O)N[S@@]1(=O)=NC(=O)c2ccc3c(c2)N(C[C@@H]2CC[C@H]2[C@@H](OC)/C=C/[C@H](OC)[C@H](C)C1)C[C@@]1(CCCc2cc(Cl)ccc21)CO3 [Example 283] | – | 10.54 | 7.07 | –
CO[C@H]1/C=C/C[C@H](C)C[S@@](=O)(NC(=O)N2CC(N3CCN4CCOC[C@@H]4C3)C2)=NC(=O)c2ccc3c(c2)N(C[C@@H]2CC[C@H]21)C[C@@]1(CCCc2cc(Cl)ccc21)CO3 [Example 297] | – | 10.48 | – | 7.16
COc1nn(C)cc1C(=O)N[S@@]1(=O)=NC(=O)c2ccc3c(c2)N(C[C@@H]2CC[C@H]2[C@@H](OC)/C=C/C[C@H](C)[C@H]1C)C[C@@]1(CCCc2cc(Cl)ccc21)CO3 [Example 188] | – | 10.16 | 7.11 | –
CO[C@H]1/C=C/C[C@H](C)C[S@@](=O)(NC(=O)N2CC(C(C)(C)OC)C2)=NC(=O)c2ccc3c(c2)N(C[C@@H]2CC[C@H]21)C[C@@]1(CCCc2cc(Cl)ccc21)CO3 [Example 265] | – | 10.34 | 7.02 | –
CO[C@H]1/C=C/C[C@H](C)C[S@@](=O)(NC(=O)N[C@@H]2C[C@H]2C(F)F)=NC(=O)c2ccc3c(c2)N(C[C@@H]2CC[C@H]21)C[C@@]1(CCCc2cc(Cl)ccc21)CO3 [Example 310] | – | 10.13 | 6.64 | –
CO[C@H]1/C=C/C[C@H](C)C[S@@](=O)(NC(=O)C2CC2c2cnn(C)c2)=NC(=O)c2ccc3c(c2)N(C[C@@H]2CC[C@H]21)C[C@@]1(CCCc2cc(Cl)ccc21)CO3 (stereo partly drawn) [Example 425] | – | 10.11 | 6.77 | –
CO[C@H]1/C=C/C[C@H](C)C[S@@](=O)(NC(=O)[C@H]2C[C@@H]2c2cccnc2)=NC(=O)c2ccc3c(c2)N(C[C@@H]2CC[C@H]21)C[C@@]1(CCCc2cc(Cl)ccc21)CO3 [Example 426] | – | 10.04 | 6.50 | –
COC(=O)N1CC[C@H](C(=O)N[S@@]2(=O)=NC(=O)c3ccc4c(c3)N(C[C@@H]3CC[C@H]3[C@@H](OC)/C=C/C[C@H](C)C2)C[C@@]2(CCCc3cc(Cl)ccc32)CO4)C1 [Example 439] | – | 9.86 | 6.10 | –
COC[C@H]1Cn2cc(C(=O)N[S@@]3(=O)=NC(=O)c4ccc5c(c4)N(C[C@@H]4CC[C@H]4[C@@H](O)/C=C/C[C@H](C)[C@H]3C)C[C@@]3(CCCc4cc(Cl)ccc43)CO5)cc2CO1 [Example 344] | – | 10.31 | 7.73 | –
CO[C@H]1/C=C/C[C@H](C)C[S@@](=O)(NC(=O)N2CC(OC)(c3ncnn3C)C2)=NC(=O)c2ccc3c(c2)N(C[C@@H]2CC[C@H]21)C[C@@]1(CCCc2cc(Cl)ccc21)CO3 [Example 277] | – | 10.21 | 7.22 | –
CO[C@H]1/C=C/CCC[S@@](=O)(NC(=O)Cc2cnccn2)=NC(=O)c2ccc3c(c2)N(C[C@@H]2CC[C@H]21)C[C@@]1(CCCc2cc(Cl)ccc21)CO3 [Example 20] | – | 9.30 | 5.69 | –

SMILES | pEC50 (SKBR3 cells; 72 hours) | pIC50 [1] | pEC50 (SKBR3 cells; Homo sapiens, SK-BR-3, 72 h) | pEC50 (SKBR3 cells; Homo sapiens, SK-BR-3, 72 hours)
CC[C@@H]1CC/C=C/[C@H](OC)[C@@H]2CC[C@H]2CN2C[C@@]3(CCCc4cc(Cl)ccc43)COc3ccc(cc32)C(=O)N=[S@@]1(=O)NC(=O)CCc1ccnn1C [Example 70] | 6.43 | 9.70 | – | –
CO[C@H]1/C=C/CCC[S@@](=O)(NC(=O)CCC2CCCC2)=NC(=O)c2ccc3c(c2)N(C[C@@H]2CC[C@H]21)C[C@@]1(CCCc2cc(Cl)ccc21)CO3 [Example 82] | – | 8.96 | 5.64 | –
CO[C@H]1/C=C/C[C@H](C)C[S@@](=O)(NC(=O)N2CC(C#N)C2)=NC(=O)c2ccc3c(c2)N(C[C@@H]2CC[C@H]21)C[C@@]1(CCCc2cc(Cl)ccc21)CO3 [Example 233] | – | 10.80 | 7.33 | –
COc1nn(C)cc1C(=O)N[S@@]1(=O)=NC(=O)c2ccc3c(c2)N(C[C@@H]2CC[C@H]2[C@@H](N2CC(OC)C2)/C=C/C[C@H](C)C1)C[C@@]1(CCCc2cc(Cl)ccc21)CO3 [Example 464] | – | 9.68 | 6.65 | –
CO[C@H]1/C=C/C[C@H](C)C[S@@](=O)(NC(=O)N2CC(CC(F)F)C2)=NC(=O)c2ccc3c(c2)N(C[C@@H]2CC[C@H]21)C[C@@]1(CCCc2cc(Cl)ccc21)CO3 [Example 355] | – | 10.21 | 7.17 | –
COc1nn(C)cc1C(=O)N[S@@]1(=O)=NC(=O)c2ccc3c(c2)N(C[C@@H]2CC[C@H]2[C@@H](OC(=O)N(C)C)/C=C/C[C@H](C)C1)C[C@@]1(CCCc2cc(Cl)ccc21)CO3 [Example 404] | – | 10.04 | 6.71 | –
CO[C@H]1/C=C/C[C@H](C)C[S@@](=O)(NC(=O)N[C@H]2C[C@H](OC)C2)=NC(=O)c2ccc3c(c2)N(C[C@@H]2CC[C@H]21)C[C@@]1(CCCc2cc(Cl)ccc21)CO3 [Example 150] | – | 10.15 | 7.41 | –
CNC(=O)N[S@@]1(=O)=NC(=O)c2ccc3c(c2)N(C[C@@H]2CC[C@H]2[C@@H](OC)/C=C/C[C@H](C)C1)C[C@@]1(CCCc2cc(Cl)ccc21)CO3 [Example 454] | – | 10.01 | 6.84 | –
CO[C@H]1/C=C/C[C@H](C)C[S@@](=O)(NC(=O)[C@H]2C[C@H](OC)C2)=NC(=O)c2ccc3c(c2)N(C[C@@H]2CC[C@H]21)C[C@@]1(CCCc2cc(Cl)ccc21)CO3 [Example 128] | – | 10.17 | 7.02 | –
CO[C@H]1/C=C/C[C@H](C)C[S@@](=O)(NC(=O)N[C@H]2C[C@H](COC(=O)N(C)C)C2)=NC(=O)c2ccc3c(c2)N(C[C@@H]2CC[C@H]21)C[C@@]1(CCCc2cc(Cl)ccc21)CO3 [Example 335] | – | 9.63 | 7.18 | –
CO[C@H]1/C=C/C[C@H](C)C[S@@](=O)(NC(=O)c2ccn(C)c2)=NC(=O)c2ccc3c(c2)N(C[C@@H]2CC[C@H]21)C[C@@]1(CCCc2cc(Cl)ccc21)CO3 [Example 147] | – | 10.29 | 6.96 | –
CO[C@H]1/C=C/C[C@H](C)C[S@@](=O)(NC(=O)c2csc(C)n2)=NC(=O)c2ccc3c(c2)N(C[C@@H]2CC[C@H]21)C[C@@]1(CCCc2cc(Cl)ccc21)CO3 [Example 146] | – | 10.21 | 6.73 | –
CO[C@H]1/C=C/C[C@H](C)C[S@@](=O)(NC(=O)N[C@H]2C[C@H]2OC)=NC(=O)c2ccc3c(c2)N(C[C@@H]2CC[C@H]21)C[C@@]1(CCCc2cc(Cl)ccc21)CO3 [Example 317] | – | 10.47 | 7.31 | –
COC[C@@H]1CC[C@H]1NC(=O)N[S@@]1(=O)=NC(=O)c2ccc3c(c2)N(C[C@@H]2CC[C@H]2[C@@H](OC)/C=C/C[C@H](C)C1)C[C@@]1(CCCc2cc(Cl)ccc21)CO3 [Example 307] | – | 9.92 | 7.01 | –
COCc1oc(C(=O)N[S@@]2(=O)=NC(=O)c3ccc4c(c3)N(C[C@@H]3CC[C@H]3[C@@H](OC)/C=C/C[C@H](C)C2)C[C@@]2(CCCc3cc(Cl)ccc32)CO4)cc1C [Example 339] | – | 10.15 | 7.27 | –
CO[C@H]1/C=C/C[C@H](C)C[S@@](=O)(NC(=O)Nc2ncccn2)=NC(=O)c2ccc3c(c2)N(C[C@@H]2CC[C@H]21)C[C@@]1(CCCc2cc(Cl)ccc21)CO3 [Example 111] | – | 10.03 | 6.14 | –
